Marks after values point to notes of the source that are not given here. Starred links: 1 amine or outer side, 2 acyl side, 3 side chain; linkers in the order of their positions; H or OH if unused. Positions of bridges follow the written chain, without caps; N, C: chain ends. Non-standard residues stand in square brackets, D forms with d. Residues, ends and D or L forms follow the SMILES beside them. ξ: configuration not given here. *: point of attachment. X25 = CC(NC(=O)[C@@H]1CCC(=O)N1)C(N[*:1])C(=O)[*:2]; ξAbu(βξ-NH2) = CC(N[*:3])C(N[*:1])C(=O)[*:2]; Phac(3-amino) = O=C(Cc1cccc(N[*:1])c1)[*:2]; ξAbu(3ξ-NH-βAla) = CC(NC(=O)CCN)C(N)C(=O)O; X4 = CNCC(=O)NC(C)C(N[*:1])C(=O)[*:2]; Pentadecanoyl = CCCCCCCCCCCCCCC(=O)*; ξAsp(βξ-Me) = CC(C(=O)O)C(N)C(=O)O; ξAbu(3ξ-NH2) = CC(N)C(N)C(=O)O; X32 = CC(C)CCCCCC/C=C\C(=O)*; 12Ado = NCCCCCCCCCCCC(=O)O; Decanoyl = CCCCCCCCCC(=O)*; Octanoyl = CCCCCCCC(=O)*; Pip = O=C(O)[CH]1CCCCN1; Hexanoyl = CCCCCC(=O)*; ξD = NC(CC(=O)O)C(=O)O; ξPip = O=C(O)C1CCCCN1; ξV = CC(C)C(N)C(=O)O; ξP = O=C(O)C1CCCN1

The test system of the first test is Staphylococcus aureus (MSSA). As to conditions: 24 h. In short, it runs like this: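 Broth microdilution MIC per NCCLS M7-A6 with doubling serial dilutions, in cation-adjusted Mueller-Hinton broth supplemented with 0.625 mM calcium.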
One may read the MIC as the smallest concentration in the dilution series that meets the test's criterion for growth inhibition. For the molecule `CCCCCCCCCCCCCCC(=O)NC(CC(=O)O)C(=O)NC1C(=O)N2CCCCC2C(=O)NC(C(C)C(=O)O)C(=O)NC(CC(=O)O)C(=O)NCC(=O)NC(CC(=O)O)C(=O)NCC(=O)NC(C(C)NC(=O)CCC(=O)O)C(=O)NC(C(C)C)C(=O)N2CCCC2C(=O)NC1C` (centres unmarked) [Compound 352, C15-Amphomycin-9-Suc], the minimum inhibitory concentration (MIC) is greater than 64 µg/mL.

Turning to `CCCCCCCCCCCCCCC(=O)NC(CC(=O)O)C(=O)NC1C(=O)N2CCCCC2C(=O)NC(C(C)C(=O)O)C(=O)NC(CC(=O)O)C(=O)NCC(=O)NC(CC(=O)O)C(=O)NCC(=O)NC(C(C)NC(=O)[C@@H]2CCCN2C(=O)[C@@H](N)CCCCN)C(=O)NC(C(C)C)C(=O)N2CCCC2C(=O)NC1C` (some centres unmarked) [Compound 353, C15-Amphomycin-9-Pro-Lys], the MIC is greater than 64 µg/mL.

In the case of `CC(C)C1NC(=O)C(C(C)NC(=O)CCN)NC(=O)CNC(=O)C(CC(=O)O)NC(=O)CNC(=O)C(CC(=O)O)NC(=O)C(C(C)C(=O)O)NC(=O)C2CCCCN2C(=O)C(NC(=O)C(N)CC(=O)O)C(C)NC(=O)C2CCCN2C1=O` (stereo not drawn) [Compound 355, Amphomycin-9-(β-Ala)] (H-D[ξAbu(βξ-NH2)][Pip][ξAsp(βξ-Me)]DGDG[ξAbu(3ξ-NH-βAla)]VP; lactam 2-C; configuration not given here), the MIC was greater than 64 µg/mL.

For the molecule `CNCC(=O)NC(C)C1NC(=O)CNC(=O)C(CC(=O)O)NC(=O)CNC(=O)C(CC(=O)O)NC(=O)C(C(C)C(=O)O)NC(=O)C2CCCCN2C(=O)C(NC(=O)C(N)CC(=O)O)C(C)NC(=O)C2CCCN2C(=O)C(C(C)C)NC1=O` (stereo not drawn) [Compound 356, Amphomycin-9-Sar] (H-D[ξAbu(βξ-NH2)][Pip][ξAsp(βξ-Me)]DGDG[X4]VP; lactam 2-C; configuration not given here), the minimal inhibitory concentration (MIC) is greater than 64 µg/mL.

As to `CCCCCC(=O)NCC(=O)NC(CC(=O)O)C(=O)NC1C(=O)N2CCCCC2C(=O)NC(C(C)C(=O)O)C(=O)NC(CC(=O)O)C(=O)NCC(=O)NC(CC(=O)O)C(=O)NCC(=O)NC(C(C)N)C(=O)NC(C(C)C)C(=O)N2CCCC2C(=O)NC1C` (stereo not drawn) [Compound 358, C6-Gly-Amphomycin] (Hexanoyl-GD[ξAbu(βξ-NH2)][Pip][ξAsp(βξ-Me)]DGDG[ξAbu(3ξ-NH2)]VP; lactam 3-C; configuration not given here), the MIC is greater than 64 µg/mL.

Take `CCCCCCCC(=O)NCC(=O)NC(CC(=O)O)C(=O)NC1C(=O)N2CCCCC2C(=O)NC(C(C)C(=O)O)C(=O)NC(CC(=O)O)C(=O)NCC(=O)NC(CC(=O)O)C(=O)NCC(=O)NC(C(C)N)C(=O)NC(C(C)C)C(=O)N2CCCC2C(=O)NC1C` (stereo not drawn) [Compound 359, C8-Gly-Amphomycin] (Octanoyl-GD[ξAbu(βξ-NH2)][Pip][ξAsp(βξ-Me)]DGDG[ξAbu(3ξ-NH2)]VP; lactam 3-C; configuration not given here): the MIC was greater than 64 µg/mL.

On to `CCCCCCCCCC(=O)NCC(=O)NC(CC(=O)O)C(=O)NC1C(=O)N2CCCCC2C(=O)NC(C(C)C(=O)O)C(=O)NC(CC(=O)O)C(=O)NCC(=O)NC(CC(=O)O)C(=O)NCC(=O)NC(C(C)N)C(=O)NC(C(C)C)C(=O)N2CCCC2C(=O)NC1C` (stereo not drawn) [Compound 360, C10-Gly-Amphomycin] (Decanoyl-GD[ξAbu(βξ-NH2)][Pip][ξAsp(βξ-Me)]DGDG[ξAbu(3ξ-NH2)]VP; lactam 3-C; configuration not given here), for which the minimal inhibitory concentration (MIC) is greater than 64 µg/mL.

Take `CCCCCCCC(=O)Nc1cccc(CC(=O)NC(CC(=O)O)C(=O)NC2C(=O)N3CCCCC3C(=O)NC(C(C)C(=O)O)C(=O)NC(CC(=O)O)C(=O)NCC(=O)NC(CC(=O)O)C(=O)NCC(=O)NC(C(C)N)C(=O)NC(C(C)C)C(=O)N3CCCC3C(=O)NC2C)c1` (stereo not drawn) [Compound 361, C8-(M-Apa)-Amphomycin] (Octanoyl-[Phac(3-amino)]D[ξAbu(βξ-NH2)][Pip][ξAsp(βξ-Me)]DGDG[ξAbu(3ξ-NH2)]VP; lactam 3-C; configuration not given here): the minimal inhibitory concentration (MIC) was greater than 64 µg/mL.

Regarding `CC(C)CCCCCC/C=C\C(=O)NC(CC(=O)O)C(=O)NC1C(=O)N2CCCCC2C(=O)NC(C(C)C(=O)O)C(=O)NC(CC(=O)O)C(=O)NCC(=O)NC(CC(=O)O)C(=O)NCC(=O)NC(C(C)N)C(=O)NC(C(C)C)C(=O)N2CCCC2C(=O)NC1C` (stereo not drawn) [Compound 364, (10-Methyl-Undec-2-Enoyl)-Amphomycin] (X32-D[ξAbu(βξ-NH2)][Pip][ξAsp(βξ-Me)]DGDG[ξAbu(3ξ-NH2)]VP; lactam 2-C; configuration not given here), the MIC is 4 to 8 µg/mL.

Take `CCCCCCCCCCCCCCC(=O)NC(CC(=O)O)C(=O)NC1C(=O)N2CCCCC2C(=O)NC(C(C)C(=O)O)C(=O)NC(CC(=O)O)C(=O)NCC(=O)NC(CC(=O)O)C(=O)NCC(=O)NC(C(C)NC(=O)[C@@H]2CCC(=O)N2)C(=O)NC(C(C)C)C(=O)N2CCCC2C(=O)NC1C` (stereo partly drawn) [Compound 373] (Pentadecanoyl-[ξD][ξAbu(βξ-NH2)][ξPip][ξAsp(βξ-Me)][ξD]G[ξD]G[X25][ξV][ξP]; lactam 2-C): the MIC is greater than 64 µg/mL.

Turning to `CC(=O)NCCCCCCCCCCCC(=O)NC(CC(=O)O)C(=O)NC1C(=O)N2CCCCC2C(=O)NC(C(C)C(=O)O)C(=O)NC(CC(=O)O)C(=O)NCC(=O)NC(CC(=O)O)C(=O)NCC(=O)NC(C(C)N)C(=O)NC(C(C)C)C(=O)N2CCCC2C(=O)NC1C` (stereo not drawn) [Compound 374, (12-Acetylaminododecanoyl)-Amphomycin] (Ac-[12Ado]D[ξAbu(βξ-NH2)][Pip][ξAsp(βξ-Me)]DGDG[ξAbu(3ξ-NH2)]VP; lactam 3-C; configuration not given here; N-terminus assumed), the minimum inhibitory concentration (MIC) is greater than 64 µg/mL.

Consider `CC(C)C1NC(=O)C(C(C)N)NC(=O)CNC(=O)C(CC(=O)O)NC(=O)CNC(=O)C(CC(=O)O)NC(=O)C(C(C)C(=O)O)NC(=O)C2CCCCN2C(=O)C(NC(=O)C(CC(=O)O)NC(=O)CCCCCCCCCCCN)C(C)NC(=O)C2CCCN2C1=O` (stereo not drawn) [Compound 375, (12-Aminododecoyl)-Amphomycin] (H-[12Ado]D[ξAbu(βξ-NH2)][Pip][ξAsp(βξ-Me)]DGDG[ξAbu(3ξ-NH2)]VP; lactam 3-C; configuration not given here), for which the MIC was greater than 64 µg/mL.

The same test, now with this note: S. aureus (MSSA), CAMHB supplemented with 0.625 mM calcium, 24 hours at about 37° C.; a range = compound tested multiple times.
As for `CCCCCCCCCCCCCCC(=O)NC(CC(=O)O)C(=O)NC1C(=O)N2CCCCC2C(=O)NC(C(C)C(=O)O)C(=O)NC(CC(=O)O)C(=O)NCC(=O)NC(CC(=O)O)C(=O)NCC(=O)NC(C(C)NC(=O)CCCc2cc3ccc4cccc5ccc(c2)c3c45)C(=O)NC(C(C)C)C(=O)N2CCCC2C(=O)NC1C` (centres unmarked) [Compound 351, C15-Amphomycin-9-(4-(Pyren-2-yl)Butyroyl)], the MIC is greater than 64 µg/mL.

For the molecule “(2-Dodecanoylamino-Thiazol-4-yl)Acetyl-Amphomycin [Compound 337]”, the minimal inhibitory concentration (MIC) was in the range of 0.25 to 1 µg/mL.

Regarding “(12-Methyl-Tetradec-2-Enoyl)-Aspartocin-9-Sar [Compound 371]”, the MIC worked out at 0.5 µg/mL.

Turning to C12-Amphomycin-9-gDab [Compound 138], the MIC was 138/32 μg/mL.

With C13-Amphomycin-9-gDab [Compound 135], the MIC is listed as 135/8 μg/mL.

Turning to C14-Amphomycin-9-gDab [Compound 139], the minimum inhibitory concentration (MIC) was 139/4 μg/mL.

Regarding “C15-Amphomycin-9-(Carbamoyl-Leu) [Compound 204]”, the MIC was found to be 16 µg/mL.

On to C17-Amphomycin-Gly-Lys [Compound 142], for which the minimum inhibitory concentration (MIC) is 142/32 μg/mL.

For the molecule “CH3—(CH2)7—NH—C(═O)-(M-Phenylacetyl)-Amphomycin [Compound 306]”, the MIC is 16 µg/mL.

As to “CH3—(CH2)7—NH—C(═O)-(p-Phenylacetyl)-Amphomycin [Compound 288]”, the MIC was found to be 16 µg/mL.

Turning to “CH3—(CH2)10—NH—C(═O)-(M-Phenylacetyl)-Amphomycin [Compound 362]”, the MIC turned out to be 0.5 µg/mL.

Turning to “CH3—(CH2)10—NH—C(═O)-(p-Phenylacetyl)-Amphomycin [Compound 290]”, the minimal inhibitory concentration (MIC) worked out at 1 µg/mL.

Regarding “CH3—(CH2)13—NH—C(═O)-(M-Phenylacetyl)-Amphomycin [Compound 292]”, the minimal inhibitory concentration (MIC) worked out at 1 µg/mL.

For “CH3—(CH2)13—NH—C(═O)-(p-Phenylacetyl)-Amphomycin [Compound 289]”, the MIC was found to be 2 µg/mL.

For “CH3—(CH2)15—NH—C(═O)-(M-Phenylacetyl)-Amphomycin [Compound 302]”, the minimum inhibitory concentration (MIC) is 4 µg/mL.

For “CH3—(CH2)15—NH—C(═O)-(p-Phenylacetyl)-Amphomycin [Compound 287]”, the minimum inhibitory concentration (MIC) was 4 µg/mL.

Take Lys-Gly-Amphomycin-9-C13 [Compound 332]: the minimum inhibitory concentration (MIC) is greater than 64 µg/mL.

“β-Isomer of (8-Dodecyloxy-Quinoline-2-Carbonyl)-Amphomycin [Compound 340]”: the MIC is 4 µg/mL.

For “β-Isomer of CH3—(CH2)10—NH—C(═O)-(GABA)-Amphomycin [Compound 330]”, the minimal inhibitory concentration (MIC) is recorded as >64^† μg/mL.

As to “β-Isomer of CH3—(CH2)13—NH—C(═O)-Amphomycin [Compound 329]”, the minimum inhibitory concentration (MIC) was 4^† μg/mL.

The values above are taken from patent US7868135B2, “Compositions of lipopeptide antibiotic derivatives and methods of use thereof” (priority 2003, dated 2011).
